Experimental data published in US20050054620A1, “Paricalcitol as a chemotherapeutic agent” (priority 2003, published 2005).

Experiments:
[1] = test system: mononuclear bone marrow cells from VDR knock-out (VDR-KO) mice; assay: Colony-forming assay in methylcellulose, VDR knock-out mice; format: cell-based; settings: 10^−8 M
Excerpt: In FIG. 6D, colony formation by mononuclear bone marrow cells from VDR knock-out (VDR-KO) and wild type (WT) mice is shown. Mononuclear cells were obtained from femoral bone marrow plugs and grown in methylcellulose culture media with either paricalcitol (10^−8M) or diluant. Colonies were counted on day 10 of culture. The number of total colonies (average) were 87 (control) and 66 (paricalcitol 10^−8M) in wild type mice, and 110 (control) and 122 (paricalcitol 10^−8M) in VDR-KO mice. The percentage of macrophage, granulocyte and mixed granulocyte/macrophage colonies are shown. Triplicate wells for each mouse and a total of three KO and three WT mice were studied. G, granulocyte colonies; G/M mixed granulocyte/macrophage colonies; M, macrophage colonies.
The VDR KO Mouse and Colony-Forming Assay was performed as follows. VDR KO mice were generated and genotypes were determined by Southern Blot Analysis as described previously (O'Kelly et al., supra, 2002). For experiments using VDR KO mice, their wild-type (WT) littermates were used as controls. Mice were killed by cervical neck dislocation. Bone marrow was flushed out of isolated femurs with (a-MEM; Gibco BRL, Grand Island, N.Y., USA) including 10% FCS using a 26-gauge needle. Isolated spleens were injected with DMEM (Gibco BRL) plus 10% FCS and crushed with forceps to release cells. Mononuclear cells from bone marrow or spleen were separated by Ficoll-Hypaque density centrifugation (Amersham Pharmacia, Uppsala, Sweden). Resuspended mononuclear bone marrow cells (2×10^4 cells/ml) and growth factors were added 1:10 to methylcellulose medium M3234 (StemCell Technologies Inc., Vancouver, British Columbia, Canada) to yield a final concentration of 1% methylcellulose, 30% FCS, 1% BSA, 10^-4M mercaptoethanol, and 2 mM L-glutamine as described previously (19). Cells were plated in six-well plates in a volume of 1 ml and incubated at 37° C. in a humidified atmosphere containing 5% CO2. Colonies were counted after 2 weeks. Colony type was established by morphology; and to ensure accurate determination, representative colonies were plucked from the plates, centrifuged onto slides, stained with Wright-Giemsa stain and examined by light microscopy.

[2] = humans, cited from earlier work
[3] = Serum calcium in tumor-bearing nude mice; format: in vivo; settings: 100 ng/mouse i.p. 3 days a week, after 4 weeks; control 9.5±0.4, not significantly different (p=0.17)
Protocol: For the mouse studies, BNX nu/nu nude mice at 8 weeks of age were purchased from Harlan Sprangue Dawley, Inc. (Indianapolis, Ind.) and their care was in accord with the guidelines of Cedars-Sinai Research Institute. They were maintained in pathogen-free conditions with irradiated chow. A total of 1×10^6 HT-29 cells in 0.1 ml of Matrigel (Collaborative Biological Products, Bedford, Mass.) were injected s.c. into bilateral flanks of each mouse, resulting in the formation of two tumors per mouse. The mice were blindly randomized to the experimental and control groups. Treatment was started on the day after the injection of […] cells and continued for 6 weeks. The control mice (five) received diluant only and the experimental mice (five) received paricalcitol [100 ng/day, intraperitoneally, 3 days per week (M,W,F)]. Tumor sizes were measured every week and calculated by the formula: A (length)×B (width)×C (height)×0.5236. After 4 weeks, blood was collected for serum calcium. All mice were euthanized at the end of the study, and the tumors were fixed in 10% neutral buffered formalin and embedded in paraffin for histological analysis. The data were analyzed by Student's t test.
To measure the serum calcium levels in mice, Sigma Diagnostics calcium reagent (Sigma, MO) containing o-cresolphthalein, which complexes with calcium to form a purple colored complex, was used.

RPMI-8226 myeloma cells = settings: 4 days exposure
HL-60 cells = assay: Cell cycle analysis by flow cytometry; format: cell-based, human; settings: 10^−7M, 72 hr
Protocol: For cell cycle analysis, cells were exposed to 10^−7M 1,25(OH)2D3, 10^−7M paricalcitol or vehicle control for either 3 or 4 days. Total cells, both in suspension and adherent, were collected, washed, suspended in cold PBS. Then cells were fixed in 75% chilled methanol and stained with propidium iodine. Cell cycle status was analyzed on a Becton Dickinson Flow Cytometer.
Cell cycle analysis was performed as follows: after treatment of 5×10^4 of cells with a selected compound, cells were collected, washed and suspended in cold PBS. Cells were fixed in chilled 75% methanol and stained with propidium iodine. Cell cycle status was analyzed on a Becton Dickinson Flow Cytometer used standart protocols.

SW837 cells = assay: Western blot of cell lysates; format: cell-based, human; settings: 10^−7M, 72 hrs
Protocol: Western blot analysis was used to determine the levels of proteins involved in cell cycle and differentiation. […] After centrifugation at 15,000×g for 15 min at 4° C., the suspension was collected. Protein concentrations were quantitated using the Bio-Rad assay (Bio-Rad Labolatories, Hercules, Calif.). […] The blots were developed using the Supersignal West Pico Chemiluminescent Substrate Kit (Pierce, Rockford, Ill.). In FIG. 4C, HT-29 and SW837 cells were cultured with either paricalcitol (10^−7M) or 1,25(OH)2D3 (10^−7M) for 72 hrs. Cell lysates were prepared and analyzed by Western blot which was probed sequentially with antibodies to COX-1 and COX-2 (Santa Cruz Biotechnology). Control cells were treated with vehicle alone. The amount of protein was normalized by comparison to the quantity of GAPDH.

[4] = test system: HCT116 colon cancer cells; assay: MTT assay; format: cell-based, human; settings: 10^−7M, 96 hrs
Protocol: (§1) HT-29, SW837, SW480 and HCT116 colon cancer cells were treated for 96 hrs with either paricalcitol (10^−7M) 1,25(OH)2D3 (10^−7M) or diluant (control). Growth (% of control) was measured by MTT assay. Results represent the mean±SD of three independent experiments with triplicate dishes. […] were incubated in culture medium for 96 hr in 96 well-plates and […] of MTT solution was added.

HT-29 colon cancer cells = assay: MTT assay; format: cell-based, human; settings: 10^−7M, 96 hrs
Protocol: as §1

SW480 colon cancer cells = assay: MTT assay; format: cell-based, human; settings: 10^−7M, 96 hrs
Protocol: as §1

SW837 colon cancer cells = assay: MTT assay; format: cell-based, human; settings: 10^−7M, 96 hrs
Protocol: as §1

C[C@H](/C=C/[C@H](C)C(C)(C)O)[C@H]1CC[C@H]2/C(=C/C=C3C[C@@H](O)C[C@H](O)C3)CCC[C@]12C [paricalcitol, 19-nor-1,25, (OH)2D3]
number of total colonies (average) ([1]; VDR knock out mice, control 110): 122 | percentage of granulocyte colonies ([1]; VDR knock-out mice, control 13±3%): 13±4% | percentage of macrophage colonies ([1]; VDR knock-out mice, control 30±8%): 25±5% | percentage of mixed colonies ([1]; VDR knock-out mice, control 56±10%): 61±8% | peak serum levels [2]: 1850 pg/mL | serum half-life ([2]; paricalcitol compared with 1,25(OH)2D3): similar | serum calcium levels [3]: 10.2 ± 0.7 mg/dL | antiproliferative effect (RPMI-8226 myeloma cells): somewhat less than the effect on NCI-H929 cells | decrease of cells in S phase (HL-60 cells): 33% | increase of cells in G0/G1 phase (HL-60 cells): 16% | increase of cells in G2/M phase (HL-60 cells): 17% | decrease of COX-2 expression (SW837 cells): 40% | effect on COX-1 expression (SW837 cells): without affecting | growth by MTT assay [4]: either only slightly sensitive or resistant | growth by MTT assay (HT-29 colon cancer cells): sensitive | growth by MTT assay (SW480 colon cancer cells): either only slightly sensitive or resistant | growth by MTT assay (SW837 colon cancer cells): sensitive
